Measured values published in patent US7018840B2, “Fluorescent metal sensors, and methods of making and using the same” (Massachusetts Institute of Technology, priority 2001, dated 2006).

How the values were obtained:
[1] = known from the literature; cited from earlier work
[2] = Affinity of subject ligand for Zn2+; type: binding
Source text: Fluorescence Zn^2+ Binding Titration (Kd1). The first Kd associated with Zn^2+ binding will be measured by a fluorescence titration as described previously. Spectra of the subject ligand will be acquired by exciting at 490 nm or other suitable wavelength and collecting and integrating from 500–575 nm or other appropriate window. The measurements will be performed in triplicate to ensure accuracy of the Kd value.

Row | Structure (SMILES) | affinity and specificity for Zn^2+ over Mg^2+ and Ca^2+ [1] | affinity for Zn^2+ [2]
1 | c1ccc(CN(CCN(Cc2ccccn2)Cc2ccccn2)Cc2ccccn2)nc1 [TPEN] | very high affinity and specificity | –
2 | O=C(O)c1ccccc1-c1c2cc(Cl)c(=O)cc-2oc2cc(N(Cc3ccccn3)Cc3ccccn3)ccc12 [compound 30, 9-(o-Carboxyphenyl)-2-chloro-6-[bis(2-pyridylmethyl)amino]-3-xanthanone] | – | weak
